Reference: patent US20180369087A1, “Hydrogen Peroxide Booster System for Enhanced Teeth Whitening” (Colgate-Palmolive Company, priority 2015, published 2018)

Test: SNOBS stability in anhydrous formulation, HPLC
Type: physicochemical
Details: for % SNOBS: composition of Table 5
Experimental: The composition of Table 5 was aged at 40° C. and at room temperature for 8 weeks and 13 weeks respectively. The percentage of SNOBS remaining was quantified by HPLC. The results in Table 6 indicate that there is sufficient SNOBS remaining in the composition after aging at both room temperature and at 40° C. to be efficacious as a booster for the peroxide component in a tooth whitening composition.

- % Loss of SNOBS (4 weeks/40° C.): 3.1%
- % SNOBS (4 weeks/40° C.): 9.36%
- % Loss of SNOBS (8 weeks/40° C.): 6.4%
- % SNOBS (8 weeks/40° C.): 8.99%
- % Loss of SNOBS (13 weeks/Room Temperature (RT)): 4.06%
- % SNOBS (13 weeks/Room Temperature (RT)): 9.21%
- % SNOBS (Initial): 9.6%
SMILES: CCCCCCCCC(=O)Oc1ccc(S(=O)(=O)[O-])cc1.[Na+] [SNOBS, sodium nonanoyloxybenzenesulfonate]
